Laboratory results reported in patent US7731945B2, “Immunotherapy for reversing immune suppression” (Immuno-Rx, Inc., priority 2001, dated 2010).

Columns and labels:
thymocyte and splenocyte = conditions: in vivo thymosin α1 5 μg/animal/day, NCM 50 units IL-2 equivalence; FIGS. 21, 22; cited from earlier work
[1] = system: endogenous suppression of T cells caused by cancer lesions; experiment: NSAID codelivered for contrasuppression in the NCM regimen; format: in vivo, human; conditions: for effectiveness as NSAID for blocking endogenous suppression of T cells: codelivery with low dose cyclophosphamide and NCM
From the text: It is preferable to block endogenous suppression of T cells, such as caused by various cancer lesions. Blocking is effected by the codelivery of low dose cyclophosphamide and a nonsteroidal anti-inflammatory drug (NSAID). The NSAID of choice is indomethacin. […] Side effects of NSAIDs are to be aggressively treated with […] and a prostaglandin E analog. Zinc and multivitamins are useful agents to help restore T cell immunity. Treatment with contrasuppression and zinc without the NCM is ineffective.

T lymphocytes = experiment: Cytokine induction by OKT-3 and/or PHA plus Ciprofloxacin, cells incubated in flasks; format: cell-based, human
From the text: The buffy coat white cells of human blood from multiple HIV-negative hepatitis virus-negative donors is collected. In an alternative embodiment, animals are the cell source for veterinary uses. The cells from the donors are pooled and layered on ficoll hypaque gradients (Pharmacia) to yield lymphocytes free of neutrophils and erythrocytes. Alternative methods could be used that would result in the same starting lymphocyte population as are known in the art.
The lymphocytes are washed and distributed in X vivo-10 media (Whittaker Bioproducts) to surface activated cell culture flasks for selection of cell subsets (MICROCELLECTOR™ T-25 Cell Culture Flasks), which contain immobilized stimulants, i.e., mitogens like PHA. In one set of experiments, X vivo-15 and X vivo-20 media were used as indicated. The immobilization process for the stimulants is as described by the manufacturer for immobilizing various substances for panning procedures, i.e., separating cells, in the flasks. Alternatively, the lymphocytes are exposed to stimulants e.g., PHA for 2-4 hours then washed three times.
The cells are incubated for 24 to 48 hours in X vivo-10 media with 80 μg/ml Ciprofloxacin (Miles Lab) at 37° in a CO2/air incubator. […] Generally, the HSA is used at 0.1 to 0.5% (weight by volume). Following incubation, the supernatants are poured off and collected. Human serum albumin (HSA) may be added to stabilize further the interleukins if HSA-free media is used for generations. The supernatants are store at 4° C. to −70°.

Compound: Thymosin α1
- thymocyte and splenocyte in vitro responses to media, rIL-1, rIL-2 and NCM (thymocyte and splenocyte): increase many of the responses

Compound: COc1ccc2c(c1)c(CC(=O)O)c(C)n2C(=O)c1ccc(Cl)cc1 [indomethacin]
- toxicity ([1]; as NSAID of the regimen): arguably the most toxic
- effectiveness as NSAID for blocking endogenous suppression of T cells [1]: most effective NSAID

Compound: OKT-3: monoclonal antibody (Ortho) which induces T lymphocytes to proliferate and produce interleukins
- GM-CSF (T lymphocytes): 75 pg/mL
- IFN-Y (T lymphocytes): 11280 pg/mL
- IL-1-β (T lymphocytes): 1125 pg/mL
- IL-6 (T lymphocytes): 1980 pg/mL
- TNF-α (T lymphocytes): 2500 pg/mL

Compound: CS(=O)(=O)c1ccc(C2=C(c3ccccc3)C(=O)OC2)cc1 [Vioxx®]
- toxicity ([1]; as NSAID of the regimen): causing gastritis in many patients
- effectiveness as NSAID for blocking endogenous suppression of T cells [1]: less effective

Compound: CC(C)Cc1ccc(C(C)C(=O)O)cc1 (stereo not shown) [Ibuprofen]
- histological responses ([1]; as NSAID of the regimen): characteristic of a TH2 rather than TH1 mediated response
- effectiveness as NSAID for blocking endogenous suppression of T cells [1]: effective

Compound: Cc1ccc(-c2cc(C(F)(F)F)nn2-c2ccc(S(N)(=O)=O)cc2)cc1 [Celebrex®]
- effectiveness as NSAID for blocking endogenous suppression of T cells [1]: less effective
